Reference: patent US20060019934A1, “Anti-HIV-1 activity of betulinol derivatives” (priority 2004, published 2006)
Where two headings read alike, the source gives them in different places.

Key:
[1] = test system: 174XCEM cells; experiment: Cell viability by trypan blue dye exclusion; details: for effect on total cell number or cell viability: trypan blue dye exclusion at four days and seven days
Description: Human T-B hybridoma cell line 174XCEM was exposed to a low multiplicity of infection (“MOI”) (MOI=1.0) of stock HIV-1 IIIB isolate for 2 hours at 37° C., washed ×3 with phosphate buffered saline (“PBS”), then plated at 250,000 cells/well in the presence of various agents, shown in Table 2. Dimethyl sulfoxide (“DMSO”) buffer was used as a “no virus” control. A commercially available synthetic peptide, thrombospondin peptide (“TSP”), known as having HIV-1 inhibitory activity, was used as an “inhibitory activity” control. Two HIV isolates were used, a patient isolate (“child HIV”), and the standard CXCR4 co-receptor utilizing isolate IIIB.
The cell samples were assessed by trypan blue dye exclusion at four days and seven days.

[2] = test system: HIV-1 IIIB isolate; experiment: HIV-1 p24 antigen capture ELISA, acutely infected 174XCEM cells; assay type: cell-based; details: for anti-HIV-1 activity compared with other betulinol derivatives: 1 μg/ml, p24 OD, FIG. 1
Text: The assay methods described herein are known in the art, and are described in detail, for example, in Crombie et al., J. Exp. Med. 187:25-35 (1998), which is hereby incorporated by reference in its entirety.
Cultures were maintained in culture medium (RPMI-1640+10% fetal bovine serum (“FBS”)) for 4 days, the culture supernatants were then collected, lysed with Triton®-X 100 surfactant, and HIV-1 gag (p24) antigen activity assessed by a standard technique, the Antigen Capture ELISA (enzyme-linked immunosorbent assay) (Roche-NEN).
Data are presented in optical density (“OD”) units, which are linear with ng/ml of p24 Ag from 0.15 to 1.5 OD, and can be converted to pg/ml of HIV-1 antigen using a standard curve.

[3] = test system: another HIV-1 isolate; experiment: Effect on 174XCEM cells chronically infected with another HIV-1 isolate; assay type: cell-based
Description: Agents were also evaluated for an effect on 174XCEM cells chronically infected with another HIV-1 isolate.

[4] = test system: carcinoma cell line CO-115 of the large intestine; details: CO-115 cells; cited from earlier work
[5] = Hashimoto et al. 1997; cited from earlier work
[6] = varying doses up to 2 μg/ml, FIG. 3-5
[7] = chronically infected 174XCEM cells, single dose 1 μg/ml
[8] = 174XCEM cells, HIV-1 IIIB, agents 1 μg/ml, p24 at 4 days, FIG. 2

C=C(C)[C@@H]1CC[C@]2(CO)CC[C@]3(C)[C@H](CC[C@@H]4[C@@]5(C)CC[C@H](OC(C)=O)C(C)(C)[C@@H]5CC[C@]43C)[C@@H]12 [3-acetoxy betulin]
effect on total cell number or cell viability [1]: no effect
anti-HIV-1 activity compared with other betulinol derivatives [2]: superior

C=C(C)[C@@H]1CC[C@]2(COC(C)=O)CC[C@]3(C)[C@H](CC[C@@H]4[C@@]5(C)CC[C@H](O)C(C)(C)[C@@H]5CC[C@]43C)[C@@H]12 [28-acetoxy betulin]
effect on total cell number or cell viability [1]: no effect
anti-HIV-1 activity compared with other betulinol derivatives [2]: superior
dose-related anti-HIV effect [2, 6]: comparable anti-HIV-1 activity

C=C(C)[C@@H]1CC[C@]2(COC(C)=O)CC[C@]3(C)[C@H](CC[C@@H]4[C@@]5(C)CC[C@H](OC(C)=O)C(C)(C)[C@@H]5CC[C@]43C)[C@@H]12 [betulin diacetate]
cell toxicity ([1]; doses of 0.5, 1.5, and 2 μg/ml): without cell toxicity
inhibition in chronically infected cells [3]: 20%
dose-related anti-HIV effect [2]: Progressive increases in anti-HIV effect
inhibition (anti-HIV-1 effect) [2]: 57%

C=C(C)[C@@H]1CC[C@]2(C(=O)O)CC[C@]3(C)[C@H](CC[C@@H]4[C@@]5(C)CC[C@H](O)C(C)(C)[C@@H]5CC[C@]43C)[C@@H]12 [betulinic acid]
LD 50 [4]: 0.375 mg/mL

C=C(C)C1CCC2(CO)CC[C@]3(C)[C@H](CC[C@@H]4[C@@]5(C)CCC(O)C(C)(C)[C@@H]5CC[C@]43C)C12 (stereo partly drawn) [betulinol, lup-20(29)-ene-3β, 28-diol]
inhibition in chronically infected cells [3, 7]: minimal effect
inhibition (anti-HIV-1 effect) [2, 8]: no effect
dose-related anti-HIV effect [2, 6]: increasing anti-HIV effect

C=C(C)C1CCC2(C=O)CC[C@]3(C)[C@H](CC[C@@H]4[C@@]5(C)CCC(=O)C(C)(C)[C@@H]5CC[C@]43C)C12 (stereo partly shown) [betulone aldehyde]
inhibition in chronically infected cells [3, 7]: minimal effect
inhibition (anti-HIV-1 effect) [2, 8]: 37%
dose-related anti-HIV effect [2, 6]: Progressive increases in anti-HIV effect

C=C(C)[C@@H]1CC[C@]2(C(=O)O)CC[C@]3(C)[C@H](CC[C@@H]4[C@@]5(C)CCC(=O)C(C)(C)[C@@H]5CC[C@]43C)[C@@H]12 [betulonic acid]
cytotoxicity, interfering with the proliferation of cells [5]: cytotoxic

betulin dimethyl ether
effect on total cell number or cell viability [1]: no effect
anti-HIV-1 activity compared with other betulinol derivatives [2]: superior
